Test results: paper PMC7868085, “A potent and selective small molecule inhibitor of myoferlin attenuates colorectal cancer progression” (Clinical and Translational Medicine, 2021)
pKd: −log10 of the molar value.

Target: T1, Myoferlin (MYOF) (Homo sapiens, UniProt Q9NZM1)
T1 construct: C2D domain of MYOF (MYOF-C2D)
T1 sequence (Q9NZM1 1123-1251 limits assumed): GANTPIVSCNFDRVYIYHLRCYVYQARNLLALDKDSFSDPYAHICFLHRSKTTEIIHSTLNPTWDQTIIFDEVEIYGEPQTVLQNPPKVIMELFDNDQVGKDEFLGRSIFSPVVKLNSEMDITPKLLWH
Assay: SPR (Biacore T200, immobilized MYOF-C2D); confirmed by BLI (KD =[…])
Assay type: binding

## CCc1nc(-c2ccc(OC)cc2)n(-c2cccc(C(=O)NCCCCc3ccccc3)c2)n1 [YQ456, 3‐(3‐ethyl‐5‐(4‐methoxyphenyl)‐1H‐1,2,4‐triazol‐1‐yl)‐N‐(4‐phenylbutyl)benzamide]
  pKd: 7.43
